Laboratory results reported in patent US20110257251A1, “TELOMERASE INHIBITORS AND METHODS OF USE THEREOF” (PRESIDENTS AND FELLOWS OF HARVARD COLLEGE, priority 2008, published 2011).
Like-named read-outs stand apart in the source and are kept apart here. Strand notation (5' to 3'): a small letter for the sugar, then the base; units joined by * are phosphorothioate-linked, units joined directly phosphodiester-linked; [ ] holds rarer units or linkages, { } end groups; capitals alone tell only the bases. m = 2'-O-methyl

Experiments:
full-length hTR = test: Fluorescence polarization binding to full-length hTR; set-up: species or system human; conditions: for affinity for full-length hTR (in words): FP; for Kd: full-length hTR construct, SEQ ID NO: 1 variants, read-out: Kp from FP
Excerpt: To assess and quantify the ability of the RIPtide hits from microarray screening to bind the target RNA in solution, a panel of RIPtides representing variations on the consensus sequences of top hits within each cluster was selected. These RIPtides were synthesized with a 3-carboxyfluorescein (FAM) label attached to the 3′-end, the same as had been attached to the surface of the microarray. Fluorescence polarization (FP) was then used to measure quantitatively the equilibrium dissociation constant (Kd) values of the FAM-labeled RIPtides, using the same folded target RNAs and buffer system as had been employed in the microarray screen.
It is possible, without wishing to be limited by a theory, that RIPtide binding sites present or available in truncated forms of hTR may not be present or available in full-length hTR. Five RIPtides were therefore selected that had been validated for binding PKWT-1 in solution, and their binding affinity to full-length hTR was measured using FP. […] Were the J2b/3 loop involved in tertiary interactions in hTR, RIPtide binding might have been lost, and therefore it was surmised that the loop remains relatively unengaged in such interactions when present in naked hTR.
The remainder of the RIPtide hits from primary microarray screens of PK123 and PK159 in solution were not validated, but instead validation using full-length hTR was analyzed. Representative examples from each of the clusters were selected (FIG. 4D) and the binding affinity of these RIPtides for full-length hTR was quantified (FIG. 6A). In this way, RIPtides from clusters III, IV and V that bind full-length hTR were identified. Taken together, the collection of hTR-validated RIPtides maps out a series of sites on the template/pseudoknot that are especially conducive to targeting by a 2′-O-methyl polyribonucleotide; with each site corresponding to a cluster of sequence-complementary RIPtides (FIG. 6B, shaded according to sequence in FIG. 6A). Specifically, these hyper-targetable regions are the J2b/3 loop and P3 stem (Cluster II), the J2a/2b bulge through part of the P2a stem (Cluster III), the J2a/3 loop (Cluster IV), and the Template region (Cluster V).
FAM (6-carboxyfluorescein)-labeled oligonucleotides were synthesized on a 3′-(6-Fluorescein) CPG support (Glen Research) using a MerMade 12 (BioAutomation) DNA synthesizer, purified with Poly Pak-II (Glen Research) cartridges, and compositionally verified by MALDI-TOF MS. Unlabeled full length hTR was prepared by in vitro transcription in the presence of T7 RNA polymerase under the conditions described earlier for RIPtide screening, but without aminoallyl-UTP addition. After DNase I treatment and ethanol precipitation, hTR was purified using the RNeasy Midi kit (Qiagen). Unlabeled PKWT and PKWT-1 were purchased from Dharmacon, and were PAGE-purified and desalted. FAM-labeled RIPtides (5 nM) were titrated with increasing concentrations of folded RNA (300 pM-3 μM, typically). Solutions containing RIPtide and RNA were incubated at 37° C. for 2 h, after which fluorescence polarization was recorded at room temperature using a SpectraMax M5 (Molecular Devices) plate reader. Polarization (expressed in millipolarization units) was monitored at […] (cutoff 515 nm). […] Dissociation constants were determined using Kaleidagraph 3.5 (Synergy Software). […]

[1] = test system: telomerase ribonucleoprotein complex; test: TRAP assay in cell extracts (HeLa, DU145, HEK293); assay type: biochemical, human; conditions: for IC50 in TRAP (in words): cell extracts (HeLa, DU145, HEK293)
Excerpt: Having discovered a panel of RIPtides that bind four different regions on the naked RNA component of telomerase, it was next determined whether these molecules were capable of inhibiting the activity of the telomerase ribonucleoprotein complex in an in vitro setting. The Telomeric Repeat Amplification Protocol (TRAP) assay (Kim, N. W. et al., Science 266, 2011-2015 (1994)) was therefore employed. The TRAP assay is a PCR-based protocol that has found widespread use in determining telomerase activity in human cell extracts and also in evaluating the in vitro potency of telomerase inhibitors. Using a version of the TRAP assay (Cy5-TRAP) that utilizes fluorescence detection (Herbert, B.-S. et al., Nat. Protocols 1, 1583-1590 (2006)). IC50 values for several RIPtides were determined using cell extracts from two human tumor cell lines (HeLa and DU145) and an immortalized embryonic cell line (HEK293). Initially, a small library of RIPtides representing several clusters identified in the microarray screen was screened and validated by FP experiments on hTR, using telomerase activity present in HeLa cell extracts. The majority of these were 8-mers, but some 7-mers and 6-mers were also tested; all were fully complementary to the target hTR sequence with Kd's for hTR below 300 nM. Several phosphorothioate variations of the initial library were additionally tested, incorporating phosphorothioate linkages either at the two terminal positions of the RIPtide or at every position.
Inhibition of telomerase activity in vitro was determined using TRAP, a PCR-based assay for telomerase activity in cell extracts (B.-S. Herbert, Nat. Protocols, 1, 1583-1590 (2006)). Unlabeled oligonucleotide sequences found to bind by FP were pre-incubated with cell extracts (HeLa, DU 145, and 293), and activity was measured by TRAP.
RIPtides were synthesized, purified with PolyPak-II C18 reverse phase cartridges, and constitutionally verified by MALDI-TOF MS. Telomerase-positive cells were either purchased from ATCC (DU145 and HEK293) or provided in the Chemicon TRAP kit (HeLa). Cell extracts were prepared from cell pellets by detergent lysis with 1×CHAPS lysis buffer (Chemicon). RIPtides were incubated with cell extract for 1 h at 37° C. prior to the TRAP assays. Assays were performed following a protocol that uses fluorescence as a quantitation system, as previously described by Herbert et al. (Nat. Protocols 1, 1583-1590 (2006)). Briefly, extension of a fluorescent artificial substrate by telomerase was carried out for 30 minutes at 30° C., followed by amplification with 30 PCR cycles ([…] 30 s, 59° C. 30 s, 72° C. 1 min). Telomerase extension products were separated on 10% native PAGE gels, and bands were visualized by fluorescence imaging and quantified using ImageQuant™ (GE Healthcare). Concentrations of RIPtides ranged from 0.6 nM to 60 μM, and for the initial screening, experiments were performed in duplicate using HeLa cell extracts. For active RIPtides, experiments were repeated using DU145 (prostate cancer) and HEK293 cell extracts. Several controls were included in the design of the experiments: a positive control (untreated cell lysate), negative controls (buffer only, heat inactivated and RNase treated cell extracts), and PCR amplification control (60 μM of RIPtide added after telomerase elongation and before PCR step). For cell-based TRAP assays, DU145 cells were transfected with 0.2% Lipofectamine™ 2000 (Invitrogen) and 165 nM RIPtide for a period of 24 h. Cells were harvested, counted, lysed with 1×CHAPS lysis buffer and normalized by total protein concentration as determined by the Bradford assay. Assays were performed in triplicate as described above.
The inhibitory potential of the RIPtides was initially assessed in HeLa cell extracts, in duplicate experiments, using a 600 pM-60 μM concentration range. Experiments with selected RIPtides were repeated for a concentration range of 0.6 pM-60 μM. […]

[2] = test system: telomerase activity in DU145 cells; test: Cell-based TRAP assay in transfected DU145 cells; set-up: species or system human; conditions: 165 nM RIPtide, 24 h, Lipofectamine 2000, then TRAP
Experimental: Having established that the modified RIPtides retain activity in vitro, several of these were tested in cell-based assays. DU145 prostate cancer cells were treated with 165 nM RIPtide for 24 h. The cells were subsequently lysed and telomerase activity was assessed by the TRAP assay (FIG. 8D). As a positive control, a previously reported 13-mer 2′-O-methyl oligonucleotide targeting the template region of hTR was employed (Pitts, A. E., Corey, D. R., Proc. Natl. Acad. Sci. USA 95, 11549-111554 (1998)). Lipofectamine™ was used to ensure optimal delivery, and it remains to be established whether cationic lipid delivery is necessary for 10-mers. In particular, there is evidence that relatively short oligonucleotides containing phosphorothioate linkages targeting telomerase show optimal cellular uptake properties (Chen, Z., et al., J. Med. Chem. 45, 5423-5425 (2002)).
RIPtides were synthesized, purified with PolyPak-II C18 reverse phase cartridges, and constitutionally verified by MALDI-TOF MS. Telomerase-positive cells were either purchased from ATCC (DU145 and HEK293) or provided in the Chemicon TRAP kit (HeLa). Cell extracts were prepared from cell pellets by detergent lysis with 1×CHAPS lysis buffer (Chemicon). RIPtides were incubated with cell extract for 1 h at 37° C. prior to the TRAP assays. Assays were performed following a protocol that uses fluorescence as a quantitation system, as previously described by Herbert et al. (Nat. Protocols 1, 1583-1590 (2006)). Briefly, extension of a fluorescent artificial substrate by telomerase was carried out for 30 minutes at 30° C., followed by amplification with 30 PCR cycles ([…] 30 s, 59° C. 30 s, 72° C. 1 min). Telomerase extension products were separated on 10% native PAGE gels, and bands were visualized by fluorescence imaging and quantified using ImageQuant™ (GE Healthcare). […] Cells were harvested, counted, lysed with 1×CHAPS lysis buffer and normalized by total protein concentration as determined by the Bradford assay. […]

mutated full length hTR = test: Fluorescence polarization compensatory mutation study with mutated full-length hTR; assay type: binding, human; conditions: mutant RIPtide and mutant hTR
Excerpt: Without wishing to be limited or constrained by theory, the RIPtide binding sites on hTR had been inferred assuming Watson-Crick complementarity between the RIPtide and target. To verify experimentally that the RIPtides were actually recognizing the predicted regions on hTR, tandem point mutations were introduced into the central portion of the RIPtides and compensatory sequence changes into hTR. The binding behavior of the “wild type” and “mutant” RIPtides to wild-type and compensatory mutant hTR targets was analyzed by FP (FIG. 7). Four different hTR transcripts were generated in which two consecutive nucleotides at the central position of each cluster, the expected target site (FIG. 6A, bases indicated in bold), were mutated to their Watson-Crick complementary bases (G→C, C→G and U→A). […] Similarly, binding was abolished or reduced when mutated RIPtides were incubated with wild-type hTR (FIG. 7C). […] Perhaps this lack of restoration in certain cases reflects a local change in the availability or in the folding energy of the single-stranded elements as a result of the mutation. Taken together, this mutational specificity supports the notion, without wishing to be bound by theory, that the RIPtides indeed target telomerase at the corresponding sequence-complementary sites.
For mapping of hTR-RIPtide binding sites, site-directed mutagenesis on the pRc/CMV plasmid (Collins lab, UC Berkeley) was performed using a QuickChange-XL mutagenesis kit (Stratagene) and confirmed by sequencing. Full-length hTR transcripts incorporating two consecutive base mutations (to their Watson-Crick complementary bases) were generated for fluorescence polarization studies.

[3] = cell extracts (HeLa, DU 145, and 293), SEQ ID NO: 1 variants, read-out: IC50 from TRAP

## 5′-GCCUCCAG-3′ (chemistry not given here) [SEQ ID NO: 1]
full-length hTR
  affinity for full-length hTR (in words): confirmed
[1]; cell extracts
  telomerase inhibition in TRAP assays (in words): showing inhibition of activity
[1]
  IC50 in TRAP (in words): micromolar range

## 5′-GGUGGAAGGC-3′ (2'-O-methyl sugars, as printed in the source, key not given here) [IV-3]
[2]
  telomerase inhibition in cultured cells: no significant telomerase inhibition
[1]
  IC50 in TRAP (in words): low nanomolar range

## AGUUAGG (all 2'-O-methyl, backbone not given here) [V-3]
Mutated full length hTR
  restoration of binding with compensatory mutations in both RIPtide and hTR: restoration was observed

## CAGCGAGA (all 2'-O-methyl, backbone not given here) [II-1]
Mutated full length hTR
  restoration of binding with compensatory mutations in both RIPtide and hTR: Restoration was not observed

## G*C*C*U*C*C*A*G (mG*mC*mC*mU*mC*mC*mA*mG) [G*C*C*U*C*C*A*G LNA]
[1]; [3]
  IC50: ~6 µM

## G*CCUCCA*G (mG*mCmCmUmCmCmA*mG; further chemistry not given here)
full-length hTR
  Kd: 0.0373 ± 0.0152 µM

## G*CCUCCAG (mG*mCmCmUmCmCmAmG)
full-length hTR
  Kd: 0.0088 ± 0.0025 µM
[1]; [3]
  IC50: ~9 µM

## GCCUCCA*G (mGmCmCmUmCmCmA*mG)
full-length hTR
  Kd: 0.0089 ± 0.0056 µM
[1]; [3]
  IC50: ~16 µM

## GGUGCCAGGC (all 2'-O-methyl, backbone not given here; further chemistry not fully specified) [IV-3 mismatch, reference compound]
[2]
  telomerase inhibition in cultured cells: abolished inhibition

## GGUGGAAGGC (as printed in the source, key not given here)
[1]; cell extracts, in vitro, read-out: IC50, telomerase inhibition in TRAP
  IC50: ~0.001 µM

## GGUGGAAGGC (as printed in the source, key not given here) [IV-4]
[1]
  IC50 in TRAP (in words): low nanomolar range

## GGUGGAAGGC (as printed in the source, key not given here) [IV-5]
[2]
  telomerase inhibition in cultured cells: marked inhibition

## GUCAGCGA (all 2'-O-methyl, backbone not given here) [II-2]
Mutated full length hTR
  restoration of binding with compensatory mutations in both RIPtide and hTR: restoration was observed
full-length hTR
  affinity for full-length hTR (in words): improvement in affinity
